Values of other authors, collected in patent US6908630B2, “Combinations of sesquiterpene lactones and ditepene triepoxide lactones for synergistic inhibition of cyclooxygenase-2” (Metaproteomics, LLC, priority 2000, dated 2005).

Details: gastrointestinal disturbance, nausea and vomiting, hypotension, edema

CC(C)[C@]12O[C@H]1[C@@H]1O[C@]13[C@]1(O[C@H]1C[C@H]1C4=C(CC[C@@]13C)C(=O)OC4)[C@@H]2O [Triptolide]
patients showing some type of side effects: Approximately 28%
